Measurements reported in paper PMC13267291, “In vivo functional profiling and structural characterization of the human GLP1R A316T variant” (Science Advances, 2026).

Key:
[1] = test system: hGLP1R^A316T/A316T versus hGLP1R^+/+ mice; assay: IPGTT after GLP-1RA, HFHS-fed homozygous mice; assay type: in vivo, mouse; settings: HFHS diet; 2 nmol/kg ip; acute and 6 hours; n = 9; Fig. 2G-J
Procedure: All animal procedures were approved by the British Home Office under the UK animals (Scientific Procedures) Act 1986 (Project License number PP7151519 to A. Martinez-Sanchez, Imperial College London, UK) and from the local ethical committee (Animal Welfare and Ethics Review Board) at the Central Biological Services unit of Imperial College London. Animals were housed in groups of up to four adult mice in individually ventilated cages under controlled conditions at 21° to 23°C with 12-hour:12-hour light-to-dark cycles (lights on at 07:00). Ad libitum access to water and feed was provided unless otherwise stated. Lean mice were fed a standard chow diet [RM1 (E); Special Diet Services]. For HFHS diet studies, animals were put on a 58 kcal % fat and sucrose diet (D12331, Research Diets Inc.) ad libitum for 10 to 14 weeks before experiments.
To examine acute and prolonged glycemic responses to GLP-1RAs, animals were fasted for 2 hours, starting at 8 a.m. on the morning of the experiments, before IPGTTs. GLP-1RAs were then coadministered at the indicated concentrations with 20% (w/v) D-glucose via intraperitoneal injection at weight-adjusted volumes. Baseline glucose readings were taken via tail venipuncture, and subsequent readings were taken at various time points after glucose ± GLP-1RA administration as for the OGTTs (0-hour acute IPGTTs). […]

[2] = test system: SNAP/FLAG-hGLP1R^A316T versus ^WT; assay: GLP-1R recruitment to detergent-resistant membrane fractions (lipid rafts); assay type: cell-based, human; settings: 100 nM, 2 min; fold to vehicle; n = 5; Fig. 8G
Procedure: signal serially monitored for 30 min. The TR-FRET ratio, i.e. the ratio of fluorescence intensities at 590 and 490 nm, was considered indicative of the proximity of the GLP-1R ECD to the plasma membrane.
Baseline-normalised AUCs were used to generate concentration– response curves fitted using GraphPad Prism 10.1.2, with logEC50 and Emax calculated for each replicate dose response curve.
Real- time c ytosolic c alcium a ssay hGLP1R-/- mouse islets were transduced with pAV- SNAP/FLAG-hGLP1RWT or A316T adenoviruses for 24 hours, labelled with the Ca2+ dye Cal-520, AM (4.5 μM; Stratech) diluted in KBRH buffer containing 6 mM glucose for 1 hour and encased in Matrigel onto […] glass bottom MatTek dishes. […] Raw fluorescence intensity traces from islet ROIs were extracted using Fiji. Responses were plotted relative to the average fluorescence intensity during the 6 mM glucose baseline period, before agonist addition, and AUCs separately calculated for the GLP- 1RA + 6 mM and 11 mM glucose […]
were resuspended in 200 μL ice-cold PBS supplemented with cOmplete EDTA-free protease inhibitor cocktail (Roche) and phosphatase inhibitor cocktail 2 and 1% Triton X-100, followed by rotating incubation for 30 min at 4°C. […] GLP-1R enrichment into DRMs was calculated from SNAP over flotillin band intensity levels under the different conditions […]

With exendin-F1 the “IPGTT glucose responses, A316T/A316T versus +/+” value [1] was “slightly more pronounced desensitization”.

With exendin-4 the “Lipid raft segregation/localization in response to agonist, A316T versus WT” value [2] was “significantly reduced” and the “IPGTT glucose responses, A316T/A316T versus +/+” value [1] was “slightly more pronounced desensitization”.

With GLP-1(7-36)NH2 the “Lipid raft segregation/localization in response to agonist, A316T versus WT” value [2] was “no changes”.
